Data on 1 compound can be found in ChEMBL document CHEMBL1151371, “Plant Anticancer Agents. XI. 2,6-Dimethoxybenzoquinone as a Cytotoxic Constituent of Tibouchina pulchra” (1981).

Converted amounts (≈) assume the structure as drawn.

For the experiment, the system named is KB. Briefly: Cytotoxicity against human KB cells. The class given is functional. As to conditions: read-out: ED50 (the source's name).

As to `COC1=CC(=O)C=C(OC)C1=O` [2,6-DIMETHOXYQUINONE], the EC50 was 3.1 µg/mL (≈ 18.4 µM).
